DBAASP
Converted amounts (≈) assume the structure as drawn.

Assays:
Experiment in all cases: ≥ marks a high value that may be exact or a test limit, other limits are often not marked, values filed in µg/mL are converted to µM
[1] = tested on: Bacillus subtilis KCTC 3068
Enterococcus faecalis VR = tested on: Enterococcus faecalis VR
Enterococcus faecalis = tested on: Enterococcus faecalis
Enterococcus faecium VR = tested on: Enterococcus faecium VR
Enterococcus faecium = tested on: Enterococcus faecium
[2] = tested on: Escherichia coli KCTC 1682
[3] = tested on: Pseudomonas aeruginosa KCTC 1637
[4] = tested on: Salmonella typhimurium KCTC 1926
[5] = tested on: Staphylococcus aureus KCTC 1621
Staphylococcus aureus MR = tested on: Staphylococcus aureus MR
[6] = tested on: Staphylococcus epidermidis KCTC 1917
Escherichia coli = tested on: Escherichia coli
Listeria innocua = tested on: Listeria innocua
Micrococcus luteus A270 = tested on: Micrococcus luteus A270
[7] = tested on: Salmonella enterica subsp. enterica serovar Enteritidis
Bacillus subtilis = tested on: Bacillus subtilis
Candida albicans = tested on: Candida albicans
Cryptococcus neoformans = tested on: Cryptococcus neoformans
Pseudomonas putida = tested on: Pseudomonas putida
Saccharomyces cerevisiae = tested on: Saccharomyces cerevisiae
Salmonella typhimurium = tested on: Salmonella typhimurium
Serratia marcescens = tested on: Serratia marcescens
Staphylococcus aureus = tested on: Staphylococcus aureus
Streptococcus mutans = tested on: Streptococcus mutans
Streptococcus pneumoniae = tested on: Streptococcus pneumoniae
[8] = tested on: Acinetobacter baumannii ATCC 19606
[9] = tested on: Candida albicans ATCC 90028
[10] = tested on: Cryptococcus neoformans ATCC 208821
[11] = tested on: Escherichia coli ATCC 25922
[12] = tested on: Klebsiella pneumoniae ATCC 700603
[13] = tested on: Pseudomonas aeruginosa ATCC 27853
[14] = tested on: Staphylococcus aureus ATCC 43300
[15] = tested on: Enterococcus faecalis ATCC 29212
[16] = tested on: Klebsiella pneumoniae ATCC 13883
[17] = tested on: Salmonella enterica subsp. enterica serovar Typhimurium ATCC 14028
[18] = tested on: Staphylococcus aureus ATCC 25923
[19] = tested on: Staphylococcus aureus ATCC BAA-44
[20] = tested on: Staphylococcus epidermidis ATCC 51625
[21] = tested on: Streptococcus pyogenes ATCC 19615

SMILES | MIC [1] [µM] | MIC (Enterococcus faecalis VR) [µM] | MIC (Enterococcus faecalis) [µM] | MIC (Enterococcus faecium VR) [µM] | MIC (Enterococcus faecium) [µM] | MIC [2] [µM] | MIC [3] [µM] | MIC [4] [µM] | MIC [5] [µM] | MIC (Staphylococcus aureus MR) [µM] | MIC [6] [µM] | MIC (Escherichia coli) [µM] | MIC (Bacillus subtilis) [µM] | further results
CSCC[C@H](NC(=O)[C@H](C)NC(=O)[C@H](CC(C)C)NC(=O)[C@H](CS)NC(=O)[C@H](Cc1cnc[nH]1)NC(=O)[C@H](C)NC(=O)[C@H](C)N)C(=O)N[C@@H](CCCN=C(N)N)C(=O)N[C@@H](CCCN=C(N)N)C(=O)N[C@@H](CCCCN)C(N)=O [AAHCLAMRRK] | 15 | 30 | 30 | 7.5 | 30 | 30 | 30 | 30 | 30 | 30 | 30 |  |  | 
CC(C)C[C@H](NC(=O)[C@H](CS)NC(=O)[C@H](CCCN=C(N)N)NC(=O)[C@H](C)NC(=O)[C@H](C)N)C(=O)N[C@@H](CO)C(=O)N[C@@H](CCC(N)=O)C(=O)N[C@@H](CCCN=C(N)N)C(=O)N[C@@H](CCCN=C(N)N)C(=O)N[C@@H](CCCCN)C(N)=O [AARCLSQRRK] | 30 (≈ 35.6 µg/mL) | 30 (≈ 35.6 µg/mL) | 30 (≈ 35.6 µg/mL) | 30 (≈ 35.6 µg/mL) | 30 (≈ 35.6 µg/mL) | 30 (≈ 35.6 µg/mL) | 30 (≈ 35.6 µg/mL) | 15 (≈ 17.8 µg/mL) | 30 (≈ 35.6 µg/mL) | 30 (≈ 35.6 µg/mL) | 15 (≈ 17.8 µg/mL) |  |  | 
CC[C@H](C)[C@H](NC(=O)[C@H](CS)NC(=O)[C@H](Cc1cnc[nH]1)NC(=O)[C@H](CC(C)C)NC(=O)[C@H](C)N)C(=O)N[C@@H](C)C(=O)N[C@@H](CC(C)C)C(=O)N[C@@H](CCCN=C(N)N)C(=O)N[C@@H](CCCCN)C(=O)N[C@@H](CCCCN)C(N)=O [ALHCIALRKK] | 7.5 (≈ 8.64 µg/mL) | 15 (≈ 17.3 µg/mL) | 15 (≈ 17.3 µg/mL) | 3.8 (≈ 4.38 µg/mL) | 15 (≈ 17.3 µg/mL) | 15 (≈ 17.3 µg/mL) | 15 (≈ 17.3 µg/mL) | 15 (≈ 17.3 µg/mL) | 7.5 (≈ 8.64 µg/mL) | 7.5 (≈ 8.64 µg/mL) | 15 (≈ 17.3 µg/mL) |  |  | 
CC(C)C[C@H](N)C(=O)N[C@@H](C)C(=O)N[C@@H](Cc1cnc[nH]1)C(=O)N[C@@H](CCCN=C(N)N)C(=O)N[C@@H](Cc1ccc(O)cc1)C(=O)N[C@@H](Cc1cnc[nH]1)C(=O)O [LAHRYH] |  |  |  |  |  |  |  |  |  |  |  | 2 (≈ 1.59 µg/mL) |  | MIC (Listeria innocua): 10 µM (≈ 7.96 µg/mL); MIC (Micrococcus luteus A270): 9 µM (≈ 7.16 µg/mL); MIC [7]: 9 µM (≈ 7.16 µg/mL)
CC(C)C[C@H](NC(=O)CNC(=O)[C@H](C)NC(=O)[C@@H](N)CCCN=C(N)N)C(=O)N[C@@H](CCC(N)=O)C(=O)N[C@@H](Cc1ccccc1)C(=O)N[C@@H](CC(C)C)C(=O)N[C@H](C(=O)NCC(=O)N[C@@H](CCCN=C(N)N)C(=O)N[C@H](C(=O)N[C@@H](Cc1cnc[nH]1)C(=O)N[C@@H](CCCN=C(N)N)C(=O)N[C@@H](CC(C)C)C(=O)N[C@@H](CC(C)C)C(=O)N[C@@H](CCCN=C(N)N)C(=O)N[C@@H](CCCCN)C(=O)O)C(C)C)C(C)C [RAGLQFLVGRVHRLLRK] |  |  |  |  |  |  |  |  |  |  |  | 15.8 (≈ 32 µg/mL) | 15.8 (≈ 32 µg/mL) | MIC (Candida albicans): 7.92 µM (≈ 16 µg/mL); MIC (Cryptococcus neoformans): 7.92 µM (≈ 16 µg/mL); MIC (Pseudomonas putida): 7.92 µM (≈ 16 µg/mL); MIC (Saccharomyces cerevisiae): 7.92 µM (≈ 16 µg/mL); MIC (Salmonella typhimurium): 7.92 µM (≈ 16 µg/mL); MIC (Serratia marcescens): 31.7 µM (≈ 64 µg/mL); MIC (Staphylococcus aureus): 15.8 µM (≈ 32 µg/mL); MIC (Streptococcus mutans): 15.8 µM (≈ 32 µg/mL); MIC (Streptococcus pneumoniae): 15.8 µM (≈ 32 µg/mL)
CC(C)C[C@H](NC(=O)[C@H](CC(C)C)NC(=O)[C@H](CCCN=C(N)N)NC(=O)[C@H](Cc1cnc[nH]1)NC(=O)[C@@H](NC(=O)[C@H](CCCN=C(N)N)NC(=O)[C@H](CCCN=C(N)N)NC(=O)[C@H](CC(C)C)NC(=O)[C@H](CC(C)C)NC(=O)[C@H](CCCN=C(N)N)NC(=O)[C@H](Cc1cnc[nH]1)NC(=O)[C@@H](NC(=O)[C@H](CCCN=C(N)N)NC(=O)[C@H](CCCN=C(N)N)NC(=O)[C@H](CC(C)C)NC(=O)[C@H](CC(C)C)NC(=O)[C@H](CCCN=C(N)N)NC(=O)[C@H](Cc1cnc[nH]1)NC(=O)[C@@H](NC(=O)[C@@H](N)CCCN=C(N)N)C(C)C)C(C)C)C(C)C)C(=O)N[C@@H](CCCN=C(N)N)C(=O)O [RVHRLLRRVHRLLRRVHRLLR] |  |  |  |  |  |  |  |  |  |  |  | 45.5 (≈ 128 µg/mL) | 2.85 (≈ 8 µg/mL) | MIC (Candida albicans): > 91.1 µM; MIC (Cryptococcus neoformans): ≥ 45.5 µM; MIC (Pseudomonas putida): 22.8 µM (≈ 64 µg/mL); MIC (Saccharomyces cerevisiae): ≥ 91.1 µM; MIC (Salmonella typhimurium): 1.42 µM (≈ 4 µg/mL); MIC (Serratia marcescens): 22.8 µM (≈ 64 µg/mL); MIC (Staphylococcus aureus): 22.8 µM (≈ 64 µg/mL); MIC (Streptococcus mutans): 11.4 µM (≈ 32 µg/mL); MIC (Streptococcus pneumoniae): ≥ 45.5 µM
NC(N)=NCCC[C@H](NC(=O)[C@H](Cc1cnc[nH]1)NC(=O)[C@H](CO)NC(=O)[C@H](CCCN=C(N)N)NC(=O)[C@H](CCCN=C(N)N)NC(=O)[C@H](CS)NC(=O)[C@H](CCCN=C(N)N)NC(=O)[C@H](Cc1cnc[nH]1)NC(=O)[C@H](Cc1cnc[nH]1)NC(=O)[C@@H](N)CO)C(=O)N[C@@H](CS)C(=O)O [SHHRCRRSHRC] |  |  |  |  |  |  |  |  |  |  |  |  |  | MIC [8]: > 22.3 µM; MIC [9]: 22.3 µM (≈ 32 µg/mL); MIC [10]: 22.3 µM (≈ 32 µg/mL); MIC [11]: > 22.3 µM; MIC [12]: > 22.3 µM; MIC [13]: > 22.3 µM; MIC [14]: > 22.3 µM
CC(C)C[C@H](NC(=O)[C@H](CCCN=C(N)N)NC(=O)[C@H](CO)NC(=O)[C@H](Cc1cnc[nH]1)NC(=O)[C@H](CCCN=C(N)N)NC(=O)[C@@H]1CCCN1C(=O)[C@H](CCCN=C(N)N)NC(=O)[C@H](Cc1cnc[nH]1)NC(=O)[C@@H]1CCCN1C(=O)[C@H](CO)NC(=O)[C@H](CC(C)C)NC(=O)[C@H](CO)NC(=O)[C@H](CCCN=C(N)N)NC(=O)[C@H](CCCCN)NC(=O)[C@@H](NC(=O)[C@@H](NC(=O)CNC(=O)[C@H](CCCN=C(N)N)NC(=O)[C@H](Cc1cnc[nH]1)NC(=O)[C@H](Cc1c[nH]c2ccccc12)NC(=O)[C@H](Cc1ccccc1)NC(=O)[C@H](Cc1cnc[nH]1)NC(=O)[C@H](Cc1ccc(O)cc1)NC(=O)[C@@H](N)Cc1ccc(O)cc1)C(C)C)[C@@H](C)O)C(=O)N[C@@H](CCC(N)=O)C(=O)N[C@@H](CCCN=C(N)N)C(=O)O [YYHFWHRGVTKRSLSPHRPRHSRLQR] |  |  |  |  |  |  |  |  |  |  |  | 2 (≈ 6.72 µg/mL) | 2 (≈ 6.72 µg/mL) | MIC [15]: 4 µM (≈ 13.4 µg/mL); MIC [16]: 2 µM (≈ 6.72 µg/mL); MIC [13]: 4 µM (≈ 13.4 µg/mL); MIC [17]: 4 µM (≈ 13.4 µg/mL); MIC [18]: 4 µM (≈ 13.4 µg/mL); MIC [19]: 6 µM (≈ 20.2 µg/mL); MIC [20]: 6 µM (≈ 20.2 µg/mL); MIC [21]: 4 µM (≈ 13.4 µg/mL)
